Biological target: T1, Thromboxane A2 (TXA2) synthetase (Equus caballus, UniProt A0A9L0T8T9)
T1 sequence (A0A9L0T8T9 2-534): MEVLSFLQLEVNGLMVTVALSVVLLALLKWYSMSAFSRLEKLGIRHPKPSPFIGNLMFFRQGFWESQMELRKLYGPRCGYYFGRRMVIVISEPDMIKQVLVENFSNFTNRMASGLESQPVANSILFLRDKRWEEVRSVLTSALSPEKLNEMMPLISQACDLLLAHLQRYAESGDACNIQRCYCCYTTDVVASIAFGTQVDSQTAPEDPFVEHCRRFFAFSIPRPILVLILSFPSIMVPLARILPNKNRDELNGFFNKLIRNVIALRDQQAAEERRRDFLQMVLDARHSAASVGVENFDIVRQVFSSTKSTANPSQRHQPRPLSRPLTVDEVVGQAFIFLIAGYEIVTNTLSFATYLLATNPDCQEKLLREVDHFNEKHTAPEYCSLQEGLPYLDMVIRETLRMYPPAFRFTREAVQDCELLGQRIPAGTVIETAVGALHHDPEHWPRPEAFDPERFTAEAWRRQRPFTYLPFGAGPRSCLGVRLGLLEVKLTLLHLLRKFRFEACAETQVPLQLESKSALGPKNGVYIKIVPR
Test: Inhibitory Action on Thromboxane A2 (TXA2) Synthetase (indomethacin-treated horse platelet microsomes, TXB2 radioimmunoassay)
Format: biochemical
Experimental: As a specimen of TXA2 synthetase was employed horse platelet microsomes treated with indomethacin (indomethacin-treated horse platelet microsomes: IPM), which were prepared according to the method described by Needleman et al. (Science 193 163, 1976).
to 60 μl of 50 mM tris-buffer solution (pH 7.5) of IPM (containing 140 μg as protein) was added 60 μl of the buffer solution or the solution containing the test compounds at various concentrations. The mixtures were left standing for 5 minutes at room temperature. Then at 0° C. to 100 μl portion of the mixture was added 20 μl of the buffer solution containing 30 ng of prostaglandin H2 (PGH2). The mixtures were left standing for 5 minutes at 0° C. to cause formation of thromboxane A2 (TXA2). The reaction of thromboxane A2 production was stopped by the addition of 500 μl of the tris-buffer to the mixture. Using 50 μl of the mixtures, the quantitative determination of thromboxane B2 (TXB2), a stable metabolite of TXA2, was done by means of the radioimmunoassay (Shibouta et al., Biochem. Pharmacol. 28 3601, 1979).
The inhibitory activity of the compounds on TXA2 -synthetase was determined from the difference in the production of TXB2 between the test group and the control group.

O=C(O)C(CCC/C=C(/c1ccccc1)c1cccnc1)Cc1ccccc1 (stereo not drawn) [3'-e]
inhibition at 0.03 µM (3 × 10^-8 M): 33%
inhibition at 0.1 µM (10^-7 M): 90%

C#CCC(CCC/C=C(\c1ccccc1)c1cccnc1)C(=O)O (stereo not drawn) [3'-h]
inhibition at 0.03 µM (3 × 10^-8 M): 66%
inhibition at 0.1 µM (10^-7 M): 93%

COCC(CCC/C=C(\c1ccccc1)c1cccnc1)C(=O)O (stereo not drawn) [3'-i]
inhibition at 0.03 µM (3 × 10^-8 M): 42%
inhibition at 0.1 µM (10^-7 M): 88%

N#Cc1ccc(CC(CCC/C=C(\c2ccccc2)c2cccnc2)C(=O)O)cc1 (stereo not drawn) [3'-n]
inhibition at 0.03 µM (3 × 10^-8 M): 57%
inhibition at 0.1 µM (10^-7 M): 93%

CC(C)(CCC/C=C(\c1cccnc1)c1cccs1)C(=O)O [3'-o]
% Inhibition on thromboxane A2 synthetase (3 × 10^-8 M): 60%
% Inhibition on thromboxane A2 synthetase (10^-7 M): 92%

CC(C)(CCC/C=C(/c1cccnc1)c1cccs1)C(=O)O [3'-p]
% Inhibition on thromboxane A2 synthetase (3 × 10^-8 M): 46%
% Inhibition on thromboxane A2 synthetase (10^-7 M): 90%

Cc1ccc(S(=O)(=O)C(CCCC/C=C(/c2ccccc2)c2cccnc2)C(=O)O)cc1 (stereo not drawn) [Compound 1-b]
inhibition at 0.03 µM (3 × 10^-8 M): 45%
inhibition at 0.1 µM (10^-7 M): 80%

Cc1ccc(S(=O)(=O)C(CCCC/C=C(\c2ccccc2)c2cccnc2)C(=O)O)cc1 (stereo not drawn) [Compound 1-d]
inhibition at 0.03 µM (3 × 10^-8 M): 57%
inhibition at 0.1 µM (10^-7 M): 85%

O=C(O)C(CCCC=C(c1ccccc1)c1cccnc1)[S+]([O-])c1ccccc1 (stereo not drawn) [Compound 1-e]
inhibition at 0.03 µM (3 × 10^-8 M): 45%
inhibition at 0.1 µM (10^-7 M): 80%

CC(C)(CCCC/C=C(\c1ccccc1)c1cccnc1)C(=O)O [Compound 1-l]
inhibition at 0.03 µM (3 × 10^-8 M): 48%
inhibition at 0.1 µM (10^-7 M): 90%

CC(C)(CCCC/C=C(/c1ccccc1)c1cccnc1)C(=O)O [Compound 1-m]
inhibition at 0.03 µM (3 × 10^-8 M): 44%
inhibition at 0.1 µM (10^-7 M): 92%

CC(C)(CCC/C=C(\c1ccccc1)c1cccnc1)C(=O)O [Compound 2-a, (E)-2,2-dimethyl-7-phenyl-7-(3-pyridyl)-6-heptenoic acid]
inhibition at 0.03 µM (3 × 10^-8 M): 83%
inhibition at 0.1 µM (10^-7 M): 92%

CC(C)(CCC/C=C(/c1ccccc1)c1cccnc1)C(=O)O [Compound 2-b, (Z)-2,2-dimethyl-7-phenyl-7-(3-pyridyl)-6-heptenoic acid]
inhibition at 0.03 µM (3 × 10^-8 M): 49%
inhibition at 0.1 µM (10^-7 M): 90%

CC(C)(CCC/C=C(\c1cccnc1)c1cccs1)C(=O)O [Compound 2-c, (E)-2,2-dimethyl-7-(3-pyridyl)-7-(2-thienyl)-6-heptenoic acid]
% Inhibition on thromboxane A2 synthetase (3 × 10^-8 M): 92%
inhibition at 0.1 µM (10^-7 M): 97%

CC(C)(CCC/C=C(/c1cccnc1)c1cccs1)C(=O)O [Compound 2-d, (Z)-2,2-dimethyl-7-(3-pyridyl)-7-(2-thienyl)-6-heptenoic acid]
inhibition at 0.03 µM (3 × 10^-8 M): 62%
inhibition at 0.1 µM (10^-7 M): 92%

CC(CCCC=C(c1cccnc1)c1ccsc1)C(=O)O (stereo not drawn) [Compound 2-e]
inhibition at 0.03 µM (3 × 10^-8 M): 65%
inhibition at 0.1 µM (10^-7 M): 90%

O=C(O)C(CCC/C=C(\c1cccnc1)c1cccs1)c1ccccc1 (stereo not drawn) [Compound 2-n]
inhibition at 0.03 µM (3 × 10^-8 M): 41%
inhibition at 0.1 µM (10^-7 M): 96%

CSC(CCC/C=C(\c1ccccc1)c1cccnc1)C(=O)O (stereo not drawn) [Compound 4-a]
inhibition at 0.03 µM (3 × 10^-8 M): 52%
inhibition at 0.1 µM (10^-7 M): 84%

O=C(O)C(CCC/C=C(\c1ccccc1)c1cccnc1)Sc1ccccc1 (stereo not drawn) [Compound 4-b]
inhibition at 0.03 µM (3 × 10^-8 M): 60%
inhibition at 0.1 µM (10^-7 M): 93%

O=C(O)C(CCC/C=C(/c1ccccc1)c1cccnc1)Sc1ccccc1 (stereo not drawn) [Compound 4-c]
inhibition at 0.03 µM (3 × 10^-8 M): 50%
inhibition at 0.1 µM (10^-7 M): 88%

COC(=O)C(C)(CCC/C=C(\c1ccccc1)c1cccnc1)Sc1ccccc1 (stereo not drawn) [Compound 4-h]
inhibition at 0.03 µM (3 × 10^-8 M): 30%
inhibition at 0.1 µM (10^-7 M): 87%

C=C(C)C(CCC/C=C(\c1ccccc1)c1cccnc1)C(=O)O (stereo not drawn) [Compound 5-g]
inhibition at 0.03 µM (3 × 10^-8 M): 59%
inhibition at 0.1 µM (10^-7 M): 92%

O=C(O)C(CCC/C=C(\c1ccccc1)c1cccnc1)C1=CCCC1 (stereo not drawn) [Compound 5-i]
inhibition at 0.03 µM (3 × 10^-8 M): 32%
inhibition at 0.1 µM (10^-7 M): 77%

CC(C)(O)C(CCC/C=C(\c1ccccc1)c1cccnc1)C(=O)O (stereo not drawn) [Compound 5-j]
inhibition at 0.03 µM (3 × 10^-8 M): 41%
inhibition at 0.1 µM (10^-7 M): 81%
